Results: patent publication US20240207240A1, “Method for Improving or Treating Cognitive Dysfunction Complicating HIV-associated Cryptococcal Meningitis with Lenalidomide” (The First Affiliated Hospital Zhejiang University School of …, priority 2022, published 2024)
Several values for one entry are separate records, joined by “and”; a condition that tells them apart may be missing. Identical values can stand only once. Like-named read-outs stand apart in the source and are kept apart here.

Key:
[1] = withdrawal for adverse event in the lenalidomide treatment cohort; type: in vivo, human; conditions: of 8 patients with cognitive dysfunction at enrollment
Description: Screening process: 14 patients were included in the lenalidomide treatment cohort based on the inclusion and exclusion criteria: 8 had cognitive dysfunction at the time of enrollment. Among them, one patient withdrew from the study due to skin allergy, so only 7 patients were followed up for 24 weeks.
Lenalidomide Treatment: Patients were treated with six cycles of lenalidomide (one cycle: […] for 3 weeks, followed by 1 week ceased lenalidomide) when they were enrolled. The drug was stopped at the end of 6 cycles.

[2] = test system: patients with cognitive dysfunction caused by HIV-associated CM-IRIS; test: Center for Epidemiological Research Depression Scale (CES-D); type: in vivo, human; conditions: before vs after lenalidomide treatment
[3] = test system: patients with cognitive dysfunction caused by HIV-associated CM-IRIS; test: overall cognitive status by MoCA and IHDS scales; type: in vivo, human; conditions: of 7 patients treated with lenalidomide
Description: FIGS. 2A and 2B show results of treating patients with HIV-associated CM who still develop cognitive dysfunction after completing the anti-cryptococcal induction treatment. The patients are treated with lenalidomide. In the treatment, lenalidomide is administered at 25 mg/day for immuno-modulation for a total of 6 treatment cycles, with each cycle including 21 days of lenalidomide administration followed by 7 days of no lenalidomide. The patients are further assigned to a cognitive improvement group and a cognitive non-improvement group. […] FIG. 2A compares CSF biochemistry in the cognitive improvement group and cognitive non-improvement group before and after treatment.
Definition of cognitive dysfunction: The Chinese version of the Montreal Cognitive Assessment (MoCA) shown in Table 1, International HIV Dementia Scale (IHDS) shown in Table 2, and Center for Epidemiological Research Depression Scale (CES-D) are used to assess patients' cognitive status. They all use Chinese questionnaires that have been validated for the evaluation of Chinese patients. The MoCA tests eight major neurocognitive domains, including short-term memory recall (no score), visuospatial ability, naming, attention, language, conceptual thinking, working memory, and orientation of time and place. […]

[4] = test system: patients with cognitive dysfunction caused by HIV-associated CM-IRIS; type: in vivo, human; conditions: for ΔIHDS: week 24 - week 0, median
CSF cytokines = test: Detection of inflammatory cytokines in CSF (Human Cytokine/Chemokine/Growth Factor Panel A); type: in vivo; conditions: for CSF Apo. E / CSF CFH / CSF Complement C3 / CSF FGF-2 / CSF G-CSF / CSF GM-CSF / CSF GRO / CSF IFN-γ / CSF IL-1α / CSF IL-1β / CSF IL-2 / CSF IL-3 / CSF IL-4 / CSF IL-6 / CSF IL-8 / CSF IL-10 / CSF IL-12p40 / CSF IL-12p70 / CSF IL-13 / CSF IL-17α / CSF IP-10 / CSF MCP-1 / CSF MIP-1α / CSF MIP-1β / CSF PDGF-AA / CSF TNF-α / CSF apoA-I / CSF pTau 181 / CSF sCD40L / CSF tTau / CSF α-2-M / CSF αβ42: W 24, after 6 cycles lenalidomide
Description: Detection of inflammatory cytokines in CSF: CSF samples were collected from the participants and centrifuged immediately; and the supernatant was stored at −80° C. until testing. 32 CSF cytokines were analyzed using the Human Cytokine/Chemokine/Growth Factor Panel A (Merck Millipore, St. Louis, USA): α-2-macroglobulin (α-2-M), apolipoprotein A-I (apoA-I), Apo-E, complement C3, complement factor H (CFH), fibroblast growth factor 2 (FGF-2), granulocyte-colony stimulating factor (G-CSF), granulocyte-macrophage colony-stimulating factor (GM-CSF), interferon-γ (IFN-γ), growth-regulated oncogene (GRO), soluble CD40 ligand (sCD40L), platelet-derived growth factor-AA (PDGF-AA), interleukin (IL)-12p40, IL-12p70, IL-13, IL-1α, IL-1β, IL-2, IL-3, IL-4, IL-6, IL-8, IL-10, IL-17α, monocyte chemoattractant protein-1 (MCP-1), macrophage inflammatory protein-la (MIP-la), MIP-1β, tumor necrosis factor-a (TNF-α), IL-17α, amyloid-β (1-42) (αβ42), total Tau (tTau) and phosphorylated Tau 181 (pTau181), The abbreviations of CSF cytokines are provided in Table 3.

[5] = individual patients P1-P4 (cognitive improvement group)
[6] = individual patients P5-P7 (cognitive non-improvement group)

## Nc1cccc2c1CN(C1CCC(=O)NC1=O)C2=O (stereo not shown) [lenalidomide]
[1]
  patients withdrawn from the study due to skin allergy: one
[2]
  CES-D score for anxiety or depression, before to after treatment: no significant difference
[3]
  patients whose cognitive status returned to normal: 4 patients
[4]; W24, after 6 cycles lenalidomide, 7 patients, baseline 9.0 (2.5-10.5), P=0.028
  median IHDS score: 11.0 (10.0-12.0)
[4]; W24, baseline 1.5 (1.0-3.5), P=0.042
  recall of the four items in the IHDS: 4.0 (2.0-4.0)
[4]; individual Patients 1-4 (cognitive improvement group)
  IHDS-W 24: 10 scores (2×) and 11 scores and 12 scores
[4]; individual Patients 5-7 (cognitive non-improvement group)
  IHDS-W 24: 12 scores (2×) and 10 scores
[4]; CI group
  ΔIHDS: 5.25 scores
[4]; CNI group
  ΔIHDS: 1.5 scores
CSF cytokines; CI group, P<0.001
  change in CSF G-CSF level after treatment: significant decline
  change in CSF GRO level after treatment: significant decline
  change in CSF IL-6 level after treatment: significant decline
  change in CSF IL-8 level after treatment: significant decline
  change in CSF IL-10 level after treatment: significant decline
CSF cytokines; CI group, P=0.002
  change in CSF CFH level after treatment: significant decline
  change in CSF TNF-α level after treatment: significant decline
CSF cytokines; CI group, P=0.003
  change in CSF α-2-M level after treatment: significant decline
CSF cytokines; CNI group, P=0.030
  change in CSF tTau level after treatment: increased significantly
CSF cytokines; [5]
  CSF Apo. E: 5683 pg/mL and 1764 pg/mL and 2487 pg/mL and 1873 pg/mL
  CSF CFH: 4617 pg/mL and 2381 pg/mL and 2275 pg/mL and 1603 pg/mL
  CSF Complement C3: 10475 pg/mL and 4010 pg/mL and 818.22 pg/mL and 1909 pg/mL
  CSF FGF-2: 16.08 pg/mL
  CSF G-CSF: 22.02 pg/mL and 3.57 pg/mL (2×) and 5.99 pg/mL
  CSF GM-CSF: 0.98 pg/mL and 1.02 pg/mL and 1.94 pg/mL and 2.81 pg/mL
  CSF GRO: 111.65 pg/mL and 63.2 pg/mL and 32 pg/mL and 149.74 pg/mL
  CSF IFN-γ: 1.31 pg/mL and 0.7 pg/mL and 0.66 pg/mL and 1.6 pg/mL
  CSF IL-1α: 1.91 pg/mL and 1.71 pg/mL and 1.65 pg/mL and 1.37 pg/mL
  CSF IL-1β: 1.15 pg/mL and 1.09 pg/mL and 0.88 pg/mL and 1.11 pg/mL
  CSF IL-2: 0.72 pg/mL and 0.69 pg/mL and 0.64 pg/mL and 0.81 pg/mL
  CSF IL-3: 0.41 pg/mL and 0.44 pg/mL and 0.43 pg/mL and 0.34 pg/mL
  CSF IL-4: 1.49 pg/mL and 2.22 pg/mL and 0.82 pg/mL (2×)
  CSF IL-6: 12.8 pg/mL and 63.58 pg/mL and 2.85 pg/mL (2×)
  CSF IL-8: 175.42 pg/mL and 164.92 pg/mL and 64.25 pg/mL and 118.93 pg/mL
  CSF IL-10: 4.21 pg/mL and 4.14 pg/mL and 2.45 pg/mL and 4.07 pg/mL
  CSF IL-12p40: 1.78 pg/mL and 0.38 pg/mL and 0.92 pg/mL and 10.92 pg/mL
  CSF IL-12p70: 2.46 pg/mL and 0.67 pg/mL and 2.09 pg/mL and 1.34 pg/mL
  CSF IL-13: 1.19 pg/mL and 0.8 pg/mL and 0.71 pg/mL and 1.09 pg/mL
  CSF IL-17α: 0.62 pg/mL
  CSF IP-10: 12150 pg/mL and 4404 pg/mL and 3063 pg/mL and 12231 pg/mL
  CSF MCP-1: 1624 pg/mL and 2268 pg/mL and 987.31 pg/mL and 923.8 pg/mL
  CSF MIP-1α: 4.61 pg/mL and 18.47 pg/mL and 3.38 pg/mL (2×)
  CSF MIP-1β: 23.79 pg/mL and 31.7 pg/mL and 9.58 pg/mL and 5.86 pg/mL
  CSF PDGF-AA: 5.66 pg/mL and 6.92 pg/mL and 2.78 pg/mL (2×)
  CSF TNF-α: 7.46 pg/mL and 6.82 pg/mL and 2.46 pg/mL and 8.22 pg/mL
  CSF apoA-I: 6850 pg/mL and 683.32 pg/mL and 668.25 pg/mL and 788.79 pg/mL
  CSF pTau 181: 61.43 pg/mL and 38.37 pg/mL and 42.96 pg/mL and 19.12 pg/mL
  CSF sCD40L: 2.49 pg/mL (3×) and 4.91 pg/mL
  CSF tTau: 1594 pg/mL and 431.47 pg/mL and 752.55 pg/mL and 234.58 pg/mL
  CSF α-2-M: 10777 pg/mL and 4765 pg/mL and 3814 pg/mL and 2942 pg/mL
  CSF αβ42: 2364 pg/mL and 708.02 pg/mL and 1573 pg/mL and 693.92 pg/mL
CSF cytokines; [6]
  CSF Apo. E: 5462 pg/mL and 2829 pg/mL and 2633 pg/mL
  CSF CFH: 3699 pg/mL and 1253 pg/mL and 2446 pg/mL
  CSF Complement C3: 4249 pg/mL and 2914 pg/mL and 1335 pg/mL
  CSF FGF-2: 13.73 pg/mL and 48.91 pg/mL
  CSF G-CSF: 2.84 pg/mL
  CSF GM-CSF: 2.58 pg/mL and 1.29 pg/mL (2×)
  CSF GRO: 117.5 pg/mL and 44.05 pg/mL and 73.45 pg/mL
  CSF IFN-γ: 1.67 pg/mL and 1.01 pg/mL and 0.66 pg/mL
  CSF IL-1α: 3.37 pg/mL and 1.95 pg/mL and 1.42 pg/mL
  CSF IL-1β: 2.16 pg/mL and 1.03 pg/mL and 1.13 pg/mL
  CSF IL-2: 1.44 pg/mL and 0.7 pg/mL and 0.74 pg/mL
  CSF IL-3: 0.82 pg/mL and 0.52 pg/mL and 0.3 pg/mL
  CSF IL-4: 2.71 pg/mL and 2.22 pg/mL and 0.49 pg/mL
  CSF IL-6: 2.85 pg/mL
  CSF IL-8: 234.05 pg/mL and 62.23 pg/mL and 171.82 pg/mL
  CSF IL-10: 2.45 pg/mL and 3.7 pg/mL
  CSF IL-12p40: 1.65 pg/mL and 1.13 pg/mL and 0.52 pg/mL
  CSF IL-12p70: 2.69 pg/mL and 1.25 pg/mL and 1.44 pg/mL
  CSF IL-13: 1.91 pg/mL and 0.99 pg/mL and 0.92 pg/mL
  CSF IL-17α: 1.13 pg/mL and 0.62 pg/mL
  CSF IP-10: 13221 pg/mL and 3398 pg/mL and 9823 pg/mL
  CSF MCP-1: 3992.12 pg/mL and 981.12 pg/mL and 3011 pg/mL
  CSF MIP-1α: 3.38 pg/mL and 5 pg/mL
  CSF MIP-1β: 31.83 pg/mL and 13.92 pg/mL and 17.91 pg/mL
  CSF PDGF-AA: 6.89 pg/mL and 2.9 pg/mL and 3.99 pg/mL
  CSF TNF-α: 8.22 pg/mL and 3.01 pg/mL and 5.21 pg/mL
  CSF apoA-I: 2047.9 pg/mL and 833.9 pg/mL and 1214 pg/mL
  CSF pTau 181: 85.14 pg/mL and 48.8 pg/mL and 36.34 pg/mL
  CSF sCD40L: 2.49 pg/mL
  CSF tTau: 1309.82 pg/mL and 681.32 pg/mL and 628.5 pg/mL
  CSF α-2-M: 7109 pg/mL and 2778 pg/mL and 4331 pg/mL
  CSF αβ42: 2453 pg/mL and 1168 pg/mL and 1285 pg/mL
